Key:
Assay type in all cases: cell-based
[1] = molecular target: T1, IKCa channel (KCa3.1) (Homo sapiens, UniProt O15554); assay: cell-attached single-channel recording; […] DCEBIO raised open probability in presence of MDZ
T1 construct: gene KCNN4; native channel in Jurkat T-lymphocytes

[2] = molecular target: T2, KV1.3 (delayed-rectifier K+ channel, IK(DR)) (Homo sapiens, UniProt P22001); assay: whole-cell patch clamp of native IK(DR), concentration-response (kinetic KD […])
T2 construct: gene KCNA3; native channel in Jurkat T-lymphocytes
T2 sequence (P22001 whole entry): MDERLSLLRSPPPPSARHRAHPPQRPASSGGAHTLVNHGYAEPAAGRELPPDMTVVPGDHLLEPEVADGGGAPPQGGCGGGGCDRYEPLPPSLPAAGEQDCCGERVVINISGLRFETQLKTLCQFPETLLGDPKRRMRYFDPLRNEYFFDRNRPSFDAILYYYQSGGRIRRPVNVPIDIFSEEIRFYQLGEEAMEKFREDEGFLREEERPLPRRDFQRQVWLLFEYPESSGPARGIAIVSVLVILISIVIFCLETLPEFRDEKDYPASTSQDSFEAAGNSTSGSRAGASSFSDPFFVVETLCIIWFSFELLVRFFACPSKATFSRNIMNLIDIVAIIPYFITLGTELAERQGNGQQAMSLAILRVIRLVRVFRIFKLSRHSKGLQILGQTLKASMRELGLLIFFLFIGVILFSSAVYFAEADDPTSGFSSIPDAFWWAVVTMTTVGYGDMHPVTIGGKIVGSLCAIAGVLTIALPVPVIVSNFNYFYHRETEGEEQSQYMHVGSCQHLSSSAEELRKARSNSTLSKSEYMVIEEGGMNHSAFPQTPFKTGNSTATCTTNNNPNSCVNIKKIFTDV

[3] = molecular target: T1, IKCa channel (KCa3.1); assay: cell-attached single-channel recording; open probability decreased at […]; settings: read-out: % decrease of open probability at 30 μM

T1 sequence (O15554 whole entry): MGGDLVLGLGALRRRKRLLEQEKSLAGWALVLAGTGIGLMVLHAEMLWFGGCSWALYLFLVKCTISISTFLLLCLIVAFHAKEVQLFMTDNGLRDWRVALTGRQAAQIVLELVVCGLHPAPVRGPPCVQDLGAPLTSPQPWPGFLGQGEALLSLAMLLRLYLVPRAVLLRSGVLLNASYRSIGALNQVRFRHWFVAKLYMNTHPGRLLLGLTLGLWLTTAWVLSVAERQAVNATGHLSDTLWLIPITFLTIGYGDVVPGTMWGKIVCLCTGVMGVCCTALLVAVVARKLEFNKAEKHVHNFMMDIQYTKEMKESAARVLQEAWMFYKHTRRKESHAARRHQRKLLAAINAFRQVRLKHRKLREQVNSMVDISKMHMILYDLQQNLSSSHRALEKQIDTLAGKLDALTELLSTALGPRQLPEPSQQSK

Compound | cell-attached single-channel recording; 3 μM DCEBIO raised open probability in p [1] | IC50 [2] [µM] | inhibition at 30 µM [3] [%]
CCn1c(=O)[nH]c2cc(Cl)c(Cl)cc21 [DCEBIO, 5,6-dichloro-1-ethyl-1,3-dihydro-2H-benzimidazol-2-one] | 0.121 ± 0.006 open probability (with 3 µM DCEBIO plus 30 µM MDZ) |  | 
Cc1ncc2n1-c1ccc(Cl)cc1C(c1ccccc1F)=NC2 [MDZ, 8-chloro-6-(2-fluorophenyl)-1-methyl-4H-imidazo [1,5-a][1,4] benzodiazepine] |  | 5.87 | 85.7 ± 2.5

Source: paper PMC8267671, “Midazolam’s Effects on Delayed-Rectifier K^+ Current and Intermediate-Conductance Ca^2+-Activated K^+ Channel in Jurkat T-lymphocytes” (International Journal of Molecular Sciences, 2021)
